{
  "source": "ChEMBL document CHEMBL5465560",
  "about": "“Selectivity Literature for EUbOPEN Chemogenomic Library” (2024)",
  "key": {"[1]": {"target": "Mitogen-activated protein kinase 6 (Homo sapiens) (UniProt Q16659)", "sequence (Q16659 whole entry)": "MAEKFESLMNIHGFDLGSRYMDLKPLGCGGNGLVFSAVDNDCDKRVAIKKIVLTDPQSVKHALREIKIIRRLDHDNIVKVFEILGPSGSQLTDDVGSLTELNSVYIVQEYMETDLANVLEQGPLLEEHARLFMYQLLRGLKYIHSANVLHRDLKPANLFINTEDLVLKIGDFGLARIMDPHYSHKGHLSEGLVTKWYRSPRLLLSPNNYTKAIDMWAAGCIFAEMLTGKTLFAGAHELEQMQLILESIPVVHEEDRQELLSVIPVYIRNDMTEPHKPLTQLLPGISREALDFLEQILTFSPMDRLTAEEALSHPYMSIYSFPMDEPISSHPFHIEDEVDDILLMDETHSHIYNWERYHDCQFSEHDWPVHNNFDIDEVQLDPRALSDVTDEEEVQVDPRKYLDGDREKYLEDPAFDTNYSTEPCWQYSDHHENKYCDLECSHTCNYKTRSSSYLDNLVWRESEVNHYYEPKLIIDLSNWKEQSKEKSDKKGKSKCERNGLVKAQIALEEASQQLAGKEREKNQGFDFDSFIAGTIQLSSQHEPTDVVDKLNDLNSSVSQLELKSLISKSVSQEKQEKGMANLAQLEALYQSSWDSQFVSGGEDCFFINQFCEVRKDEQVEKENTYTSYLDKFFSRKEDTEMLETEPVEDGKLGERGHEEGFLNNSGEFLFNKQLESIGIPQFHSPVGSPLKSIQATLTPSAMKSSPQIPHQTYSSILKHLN", "assay": "Selectivity interaction (KinomeScan (DiscoverX)) EUB0000666a MAPK6", "conditions": "at 10 µM"}, "[2]": {"target": "T1, Phosphatidylinositol 3-kinase C2 domain-containing subunit gamma (Homo sapiens) (UniProt O75747)", "T1 sequence (whole entry)": "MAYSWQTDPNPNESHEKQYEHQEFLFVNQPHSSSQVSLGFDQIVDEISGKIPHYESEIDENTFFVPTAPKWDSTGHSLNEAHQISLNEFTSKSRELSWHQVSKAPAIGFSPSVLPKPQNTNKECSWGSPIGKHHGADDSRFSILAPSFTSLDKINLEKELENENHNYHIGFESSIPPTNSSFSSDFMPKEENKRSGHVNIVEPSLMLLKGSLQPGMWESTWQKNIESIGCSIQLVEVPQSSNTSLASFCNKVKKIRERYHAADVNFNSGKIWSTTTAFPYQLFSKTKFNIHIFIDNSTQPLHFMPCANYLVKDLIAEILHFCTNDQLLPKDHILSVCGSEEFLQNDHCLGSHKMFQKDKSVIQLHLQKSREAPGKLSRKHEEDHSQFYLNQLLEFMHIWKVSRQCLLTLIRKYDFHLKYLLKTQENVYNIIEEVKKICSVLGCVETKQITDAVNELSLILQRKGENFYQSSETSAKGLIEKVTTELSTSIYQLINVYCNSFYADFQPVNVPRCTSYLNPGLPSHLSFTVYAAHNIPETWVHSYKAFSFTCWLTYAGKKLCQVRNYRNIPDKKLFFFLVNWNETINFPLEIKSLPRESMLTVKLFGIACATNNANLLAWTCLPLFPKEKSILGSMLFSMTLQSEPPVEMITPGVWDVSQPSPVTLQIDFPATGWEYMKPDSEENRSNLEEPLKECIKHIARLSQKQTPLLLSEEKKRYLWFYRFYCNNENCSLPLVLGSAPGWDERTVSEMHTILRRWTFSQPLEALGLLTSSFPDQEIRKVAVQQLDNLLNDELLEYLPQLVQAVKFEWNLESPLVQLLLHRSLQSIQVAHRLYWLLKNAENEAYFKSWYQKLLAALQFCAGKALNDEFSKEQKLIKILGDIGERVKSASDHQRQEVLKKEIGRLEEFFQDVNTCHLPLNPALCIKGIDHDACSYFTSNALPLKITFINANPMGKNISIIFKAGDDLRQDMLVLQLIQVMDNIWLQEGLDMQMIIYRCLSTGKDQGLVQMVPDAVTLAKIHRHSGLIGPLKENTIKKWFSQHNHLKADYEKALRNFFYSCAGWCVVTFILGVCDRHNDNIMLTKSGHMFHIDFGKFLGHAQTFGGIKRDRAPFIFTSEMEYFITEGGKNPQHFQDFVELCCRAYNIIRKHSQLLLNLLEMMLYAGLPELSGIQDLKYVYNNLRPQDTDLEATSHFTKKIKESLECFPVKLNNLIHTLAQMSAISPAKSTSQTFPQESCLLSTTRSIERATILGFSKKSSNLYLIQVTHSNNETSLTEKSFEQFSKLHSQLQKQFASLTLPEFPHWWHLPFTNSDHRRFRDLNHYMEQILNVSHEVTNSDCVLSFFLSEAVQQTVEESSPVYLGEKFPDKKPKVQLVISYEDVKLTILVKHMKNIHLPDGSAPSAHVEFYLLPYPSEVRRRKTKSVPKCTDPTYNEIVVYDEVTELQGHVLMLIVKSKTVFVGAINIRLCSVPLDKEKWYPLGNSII", "assay": "Selectivity interaction (KinomeScan (DiscoverX)) EUB0001079a PIK3C2G", "conditions": "at 1 µM"}, "[3]": {"target": "Bromodomain-containing protein 7 (Homo sapiens) (UniProt Q9NPI1)", "assay": "Selectivity interaction (Bromodomain panel (DSF asssay)) EUB0000270b BRD7"}, "[4]": {"target": "Tyrosine-protein kinase JAK1 (Homo sapiens, UniProt P23458)", "sequence (P23458 whole entry)": "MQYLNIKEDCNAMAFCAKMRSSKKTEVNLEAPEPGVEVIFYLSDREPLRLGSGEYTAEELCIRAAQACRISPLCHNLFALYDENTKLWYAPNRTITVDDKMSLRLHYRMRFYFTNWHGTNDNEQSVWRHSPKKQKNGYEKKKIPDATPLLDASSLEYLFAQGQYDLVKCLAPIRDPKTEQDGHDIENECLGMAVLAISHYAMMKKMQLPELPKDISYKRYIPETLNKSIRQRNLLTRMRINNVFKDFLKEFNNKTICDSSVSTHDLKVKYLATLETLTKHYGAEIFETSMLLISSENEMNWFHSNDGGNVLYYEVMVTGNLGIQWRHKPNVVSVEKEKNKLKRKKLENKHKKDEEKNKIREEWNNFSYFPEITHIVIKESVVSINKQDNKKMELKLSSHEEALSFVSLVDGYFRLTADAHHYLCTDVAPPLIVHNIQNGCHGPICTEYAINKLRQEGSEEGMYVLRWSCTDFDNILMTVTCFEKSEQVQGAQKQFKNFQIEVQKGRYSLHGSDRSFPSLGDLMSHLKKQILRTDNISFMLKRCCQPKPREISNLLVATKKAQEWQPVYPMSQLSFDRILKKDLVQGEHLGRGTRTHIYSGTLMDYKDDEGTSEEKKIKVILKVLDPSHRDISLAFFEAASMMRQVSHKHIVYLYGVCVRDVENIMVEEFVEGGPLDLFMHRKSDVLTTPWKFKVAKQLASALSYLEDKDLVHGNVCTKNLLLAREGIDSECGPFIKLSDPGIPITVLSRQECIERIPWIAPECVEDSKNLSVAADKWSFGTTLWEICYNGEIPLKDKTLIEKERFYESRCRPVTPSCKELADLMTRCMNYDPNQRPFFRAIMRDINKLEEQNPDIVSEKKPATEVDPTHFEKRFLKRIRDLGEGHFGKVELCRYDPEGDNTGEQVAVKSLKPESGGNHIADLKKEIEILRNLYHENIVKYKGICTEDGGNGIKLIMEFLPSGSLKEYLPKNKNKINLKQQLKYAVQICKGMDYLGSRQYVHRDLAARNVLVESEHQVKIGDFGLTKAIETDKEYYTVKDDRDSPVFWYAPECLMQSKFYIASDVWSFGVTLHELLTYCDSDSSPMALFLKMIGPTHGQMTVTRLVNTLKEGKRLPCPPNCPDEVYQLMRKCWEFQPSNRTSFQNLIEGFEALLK", "assay": "Selectivity interaction (ActivX KiNativ screen (kinase selectivity in THP-1 cell lysates)) EUB0000639a JAK1", "assay_type": "subcellular", "conditions": "lysate, at 0.2 µM"}, "[5]": {"target": "SRSF protein kinase 3 (Homo sapiens) (UniProt Q9UPE1)", "assay": "Selectivity interaction (Ambit KINOMEscan and KiNATiv profiling in Jurkat cells) EUB0000090b SRPK3", "assay_type": "cell-based", "conditions": "at 1 µM"}, "[6]": {"target": "T2, Activin receptor type-1B (Homo sapiens) (UniProt P36896)", "T2 sequence (whole entry)": "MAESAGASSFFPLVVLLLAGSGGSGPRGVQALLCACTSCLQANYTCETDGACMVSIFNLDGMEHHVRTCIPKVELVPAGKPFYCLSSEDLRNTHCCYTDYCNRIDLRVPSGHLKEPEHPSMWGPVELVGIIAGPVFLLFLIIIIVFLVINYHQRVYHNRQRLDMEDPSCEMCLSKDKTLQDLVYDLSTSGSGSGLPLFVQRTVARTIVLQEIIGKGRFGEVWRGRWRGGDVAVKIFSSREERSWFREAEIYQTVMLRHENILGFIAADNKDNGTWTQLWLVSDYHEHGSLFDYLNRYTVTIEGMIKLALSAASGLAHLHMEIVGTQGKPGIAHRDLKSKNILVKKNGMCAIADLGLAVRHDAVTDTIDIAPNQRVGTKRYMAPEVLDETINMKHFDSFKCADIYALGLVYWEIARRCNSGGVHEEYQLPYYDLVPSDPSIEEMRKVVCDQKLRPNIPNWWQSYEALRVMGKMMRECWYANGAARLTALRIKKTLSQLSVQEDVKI", "assay": "Selectivity interaction (KinomeScan (DiscoverX)) EUB0000045b ACVR1B"}, "[7]": {"target": "T3, Casein kinase I isoform alpha-like (Homo sapiens) (UniProt Q8N752)", "T3 sequence (whole entry)": "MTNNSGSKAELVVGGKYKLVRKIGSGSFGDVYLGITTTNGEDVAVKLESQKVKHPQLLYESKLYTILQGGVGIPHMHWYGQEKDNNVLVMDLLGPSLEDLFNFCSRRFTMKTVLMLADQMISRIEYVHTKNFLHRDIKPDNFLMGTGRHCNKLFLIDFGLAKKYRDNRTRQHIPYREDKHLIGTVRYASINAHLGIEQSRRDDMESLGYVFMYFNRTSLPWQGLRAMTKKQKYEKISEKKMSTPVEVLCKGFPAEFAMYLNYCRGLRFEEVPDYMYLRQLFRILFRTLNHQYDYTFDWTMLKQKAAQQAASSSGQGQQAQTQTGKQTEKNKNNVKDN", "assay": "Selectivity interaction (KinomeScan (DiscoverX)) EUB0001619a CSNK1A1L", "conditions": "at 1 µM"}, "[8]": {"target": "Tyrosine-protein kinase Fes/Fps (Homo sapiens) (UniProt P07332)", "sequence (P07332 whole entry)": "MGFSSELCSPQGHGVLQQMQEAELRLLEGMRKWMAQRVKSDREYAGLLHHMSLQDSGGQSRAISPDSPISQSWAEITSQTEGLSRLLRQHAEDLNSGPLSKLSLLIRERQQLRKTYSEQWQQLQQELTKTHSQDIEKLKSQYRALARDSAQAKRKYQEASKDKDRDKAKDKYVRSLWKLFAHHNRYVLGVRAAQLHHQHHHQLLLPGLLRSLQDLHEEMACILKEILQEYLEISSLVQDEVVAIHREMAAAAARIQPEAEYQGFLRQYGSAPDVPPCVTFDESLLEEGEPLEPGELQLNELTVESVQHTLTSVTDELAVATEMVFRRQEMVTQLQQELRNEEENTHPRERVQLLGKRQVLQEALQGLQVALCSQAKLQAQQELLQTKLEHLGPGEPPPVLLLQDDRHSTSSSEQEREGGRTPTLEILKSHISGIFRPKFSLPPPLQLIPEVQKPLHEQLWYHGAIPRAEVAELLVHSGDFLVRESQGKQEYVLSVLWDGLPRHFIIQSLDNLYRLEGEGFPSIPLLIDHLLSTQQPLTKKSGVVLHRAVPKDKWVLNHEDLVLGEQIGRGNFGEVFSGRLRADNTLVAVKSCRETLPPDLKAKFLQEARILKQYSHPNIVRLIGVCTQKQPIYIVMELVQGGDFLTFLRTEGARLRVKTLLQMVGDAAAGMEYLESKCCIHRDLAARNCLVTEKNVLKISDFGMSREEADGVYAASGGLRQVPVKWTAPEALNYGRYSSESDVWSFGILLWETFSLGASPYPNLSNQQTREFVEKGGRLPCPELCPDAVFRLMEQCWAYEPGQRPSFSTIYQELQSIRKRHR", "assay": "Selectivity interaction (ActivX KiNativ screen (ex vivo kinase selectivity in human PBMCs)) EUB0001619a FES", "assay_type": "cell-based", "conditions": "PBMC, at 1 µM"}, "[9]": {"target": "Myosin light chain kinase, smooth muscle (Homo sapiens, UniProt Q15746)", "sequence (Q15746 whole entry)": "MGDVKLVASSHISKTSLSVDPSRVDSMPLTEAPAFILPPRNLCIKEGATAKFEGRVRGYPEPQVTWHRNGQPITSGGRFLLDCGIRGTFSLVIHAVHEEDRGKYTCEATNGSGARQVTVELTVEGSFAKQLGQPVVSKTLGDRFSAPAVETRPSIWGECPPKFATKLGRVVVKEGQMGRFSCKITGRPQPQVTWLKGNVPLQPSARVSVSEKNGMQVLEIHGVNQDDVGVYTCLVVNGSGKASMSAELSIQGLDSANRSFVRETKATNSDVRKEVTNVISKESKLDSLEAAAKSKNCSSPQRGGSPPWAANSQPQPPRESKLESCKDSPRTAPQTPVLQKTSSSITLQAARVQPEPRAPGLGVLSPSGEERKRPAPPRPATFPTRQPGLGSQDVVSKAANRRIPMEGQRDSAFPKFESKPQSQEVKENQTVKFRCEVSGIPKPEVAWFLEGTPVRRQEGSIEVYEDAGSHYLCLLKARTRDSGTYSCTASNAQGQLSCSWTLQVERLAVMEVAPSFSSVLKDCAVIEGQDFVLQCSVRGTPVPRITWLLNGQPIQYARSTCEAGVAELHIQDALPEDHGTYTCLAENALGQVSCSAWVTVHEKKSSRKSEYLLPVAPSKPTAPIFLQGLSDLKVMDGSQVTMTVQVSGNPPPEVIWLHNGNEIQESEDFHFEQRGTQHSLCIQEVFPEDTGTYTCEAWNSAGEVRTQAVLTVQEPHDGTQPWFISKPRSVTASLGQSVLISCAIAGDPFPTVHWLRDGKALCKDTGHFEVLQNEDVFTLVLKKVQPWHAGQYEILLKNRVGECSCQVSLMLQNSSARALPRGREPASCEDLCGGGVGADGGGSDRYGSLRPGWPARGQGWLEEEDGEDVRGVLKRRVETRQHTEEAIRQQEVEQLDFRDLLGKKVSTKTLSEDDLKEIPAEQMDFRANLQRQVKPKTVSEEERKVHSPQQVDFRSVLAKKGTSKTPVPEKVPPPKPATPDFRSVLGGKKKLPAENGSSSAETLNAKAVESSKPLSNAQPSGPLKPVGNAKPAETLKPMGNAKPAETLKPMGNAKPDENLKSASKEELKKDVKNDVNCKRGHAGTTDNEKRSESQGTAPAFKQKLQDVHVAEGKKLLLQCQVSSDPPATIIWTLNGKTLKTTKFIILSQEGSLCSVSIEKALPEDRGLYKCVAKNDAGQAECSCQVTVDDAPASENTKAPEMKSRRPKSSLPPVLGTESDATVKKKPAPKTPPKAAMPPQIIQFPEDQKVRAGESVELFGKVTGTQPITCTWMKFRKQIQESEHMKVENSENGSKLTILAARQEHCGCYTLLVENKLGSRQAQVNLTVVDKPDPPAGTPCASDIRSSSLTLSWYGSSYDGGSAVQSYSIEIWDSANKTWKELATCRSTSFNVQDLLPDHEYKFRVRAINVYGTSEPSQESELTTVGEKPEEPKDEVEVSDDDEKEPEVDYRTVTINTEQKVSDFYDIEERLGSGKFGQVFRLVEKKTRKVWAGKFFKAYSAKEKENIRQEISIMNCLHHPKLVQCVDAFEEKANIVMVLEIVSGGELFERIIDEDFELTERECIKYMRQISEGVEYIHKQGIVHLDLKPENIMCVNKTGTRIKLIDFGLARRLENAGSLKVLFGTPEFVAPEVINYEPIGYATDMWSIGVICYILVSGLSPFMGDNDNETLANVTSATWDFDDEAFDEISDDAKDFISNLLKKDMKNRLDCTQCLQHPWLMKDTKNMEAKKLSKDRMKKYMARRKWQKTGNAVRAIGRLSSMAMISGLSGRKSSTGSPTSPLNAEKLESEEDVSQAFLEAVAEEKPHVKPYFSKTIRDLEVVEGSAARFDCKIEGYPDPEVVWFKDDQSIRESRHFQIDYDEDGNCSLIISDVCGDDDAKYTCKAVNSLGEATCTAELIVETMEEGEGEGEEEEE", "assay": "Selectivity interaction (KinomeScan (DiscoverX)) EUB0000655a MYLK", "conditions": "at 10 µM"}},
  "data": [
    {"molecule": "O=C(NOC[C@H](O)CO)c1ccc(F)c(F)c1Nc1ccc(I)cc1F", "values": [
      {"measurement": "% of control", "setting": "[1]", "result": 83, "unit": "%"}
    ]},
    {"molecule": "Nc1cnc(N2CCc3cc(S(=O)(=O)Nc4c(F)cc(Cl)cc4F)cc(N4CCCC4=O)c32)nc1", "note": "[TP-020n]", "values": [
      {"measurement": "% of control", "setting": "[2]", "result": 78, "unit": "%"}
    ]},
    {"molecule": "Cc1cc(CN)cc(C)c1-c1ncn(C)c1-c1cncn1C", "values": [
      {"measurement": "dTM", "setting": "[3]", "result": -1.08, "unit": "K"}
    ]},
    {"molecule": "CC[C@@H]1[C@H](F)C(=O)N[C@@H]1COc1nccc2cc(C(N)=O)c(OC)cc12", "note": "[ZIMLOVISERTIB]", "values": [
      {"measurement": "% of inhibition", "setting": "[4]", "result": -7.3, "unit": "%"}
    ]},
    {"molecule": "CN(C)C/C=C/C(=O)Nc1ccc(C(=O)N2CCCC(Nc3ncc(Cl)c(-c4c[nH]c5ccccc45)n3)C2)cc1", "note": "(stereo not given)", "values": [
      {"measurement": "% of control", "setting": "[5]", "result": 93, "unit": "%"}
    ]},
    {"molecule": "C=CC(=O)Nc1cc(-n2c(=O)ccc3cnc4ccc(-c5ccc(NS(C)(=O)=O)cc5)cc4c32)ccc1C", "values": [
      {"measurement": "% of control", "setting": "[6]; at 1 µM", "result": 84, "unit": "%"},
      {"measurement": "% of control", "setting": "[6]; at 10 µM", "result": 100, "unit": "%"}
    ]},
    {"molecule": "N#Cc1cccc(-c2c[nH]c3ncnc(N4CCOCC4)c23)c1", "values": [
      {"measurement": "% of control", "setting": "[7]", "result": 96, "unit": "%"},
      {"measurement": "% of inhibition", "setting": "[8]", "result": 7, "unit": "%"}
    ]},
    {"molecule": "CN(C)CCOc1ccc(-c2nc(-c3ccncc3)c(-c3ccc4c(c3)CC/C4=N\\O)[nH]2)cc1", "values": [
      {"measurement": "% of control", "setting": "[9]", "result": 51, "unit": "%"}
    ]}
  ]
}
